± gives the standard deviation of the reports.
SMILES	glass transition temperature [°C]
*Oc1cccc(Oc2ccc(/N=C/c3ccc(N(c4ccccc4)c4ccc(/C=N/c5ccc(*)cc5)cc4)cc3)cc2)c1 (repeat unit)	174.00
*Oc1ccc(CC(NC(=O)CCc2ccc(OC(=O)COCC(*)=O)cc2)C(=O)OCCOCCOCC)cc1 (repeat unit)	27.00
*CC(=O)Nc1ccc(C2(c3ccc(NC(=O)Cn4c(=O)c5cc6c(=O)n(*)c(=O)c6cc5c4=O)cc3)c3ccccc3-c3ccccc32)cc1 (repeat unit)	350.00
*c1ccc2c(c1)C(=O)N(c1ccc(-c3ccc(N4C(=O)c5ccc(C(*)(C(F)(F)F)C(F)(F)F)cc5C4=O)cc3C(F)(F)F)c(C(F)(F)F)c1)C2=O (repeat unit)	327.00 ± 18
*c1ccc(C(=O)Oc2c(C)cc(C(c3cccnc3)c3cc(C)c(OC(=O)c4ccc(N5C(=O)CC(Nc6cccc(NC7CC(=O)N(*)C7=O)c6)C5=O)cc4)c(C)c3)cc2C)cc1 (repeat unit)	194.00
*Oc1ccc(C(CC)c2ccc(OC(*)=S)cc2)cc1 (repeat unit)	104.00
*OC(=O)OC1CC2CC(*)CC(C1)O2 (repeat unit)	207.00
*c1nc(-c2ccccc2)nc(N(CCCCCCN(*)c2ccccc2)c2ccccc2)n1 (repeat unit)	74.00
*Oc1ccc(OC(=O)c2ccc(C(*)=O)cc2)cc1 (repeat unit)	267.00
*CCOCCOCCN1C(=O)c2ccc(C(=O)Oc3ccc4cc(OC(=O)c5ccc6c(c5)C(=O)N(*)C6=O)ccc4c3)cc2C1=O (repeat unit)	105.00
*Oc1ccc(CC(NC(=O)Cc2ccc(OC(=O)CCCCC(*)=O)cc2)C(=O)OCC)cc1 (repeat unit)	63.00
*CC(*)OC(=O)CC1CCCCC1 (repeat unit)	25.00
*Oc1ccc(C(=O)Nc2cc(NC(=O)c3ccc(*)cc3)cc(-c3nc4ccccc4[nH]3)c2)cc1 (repeat unit)	335.00
*CCCCCCOC(=O)OCCCCCCCCCCOC(=O)OCCCCCCOc1ccc(Oc2ccc(O*)cc2)cc1 (repeat unit)	-22.00
*C(=O)Nc1ccc(Oc2ccc(C3(c4ccc(Oc5ccc(NC(=O)c6ccc7c(c6)C(=O)N(c6ccc(Oc8ccc(N9C(=O)c%10ccc(*)cc%10C9=O)cc8)cc6)C7=O)cc5)cc4)NC(=O)c4ccccc43)cc2)cc1 (repeat unit)	320.00
*C(=O)c1ccc2c(c1)C(=O)N(c1cc(OCCCCCCCC)cc(N3C(=O)c4ccc(*)cc4C3=O)c1)C2=O (repeat unit)	195.00
*/C=C/C1CC(*)C(C#N)([Si](C)(C)C)C1 (repeat unit)	211.00
*c1cc(C(=O)OCC(F)(F)C(F)(F)C(F)(F)F)c(*)s1 (repeat unit)	129.00
*CCN(CCOC(=O)c1ccc(C(=O)O*)c(OCCC)c1)c1ccc(C=C(C#N)C#N)cc1 (repeat unit)	94.00
*CC(*)OC(=O)OCC(F)(F)F (repeat unit)	57.00

SMILES	glass transition temperature [°C]
*CC(*)(C)c1ccccc1 (repeat unit) [poly(alpha-methylstyrene)]	168.00 ± 140
*c1ccc(Oc2cc3ccccc3cc2Oc2ccc(N3C(=O)c4ccc(-c5ccc6c(c5)C(=O)N(*)C6=O)cc4C3=O)cc2)cc1 (repeat unit)	253.50
*CC(*)C(=O)OC(C)CC (repeat unit) [Poly(sec-butyl acrylate)]	-20 ± 1.8
*c1cc(/N=N/c2ccc(C#N)cc2)cc(*)c1O (repeat unit)	176.00
*CC(*)c1ccc(C(=O)c2ccccc2)cc1 (repeat unit)	98.00
*CCCCNC(=O)CCCCC(=O)N* (repeat unit)	58.00
*CCCCCCCCCCCCOC(=O)c1ccc2cc(C(=O)O*)ccc2c1 (repeat unit)	45.00
*CCCCCC(=O)Oc1ccc(Oc2ccc(OC(=O)CCCCCn3c(=O)c4cc5c(=O)n(*)c(=O)c5cc4c3=O)cc2)cc1 (repeat unit)	91.00
*O[Si](C)(C)c1cccc2c1ccc1c([Si](*)(C)C)cccc12 (repeat unit)	100.00
*c1ccc(Oc2ccc(C(=O)c3ccc(Oc4ccc(-c5nnc(*)c6c(-c7ccccc7)c(-c7ccc8ccccc8c7)c(-c7ccc8ccccc8c7)c(-c7ccccc7)c56)cc4)cc3)cc2)cc1 (repeat unit)	312.00
*CCCCCCCCCCc1ccc(-c2c(-c3ccccc3)cc(-c3cccc(-c4cc(-c5ccccc5)c(-c5ccc(*)cc5)c(-c5ccccc5)c4-c4ccccc4)c3)c(-c3ccccc3)c2-c2ccccc2)cc1 (repeat unit)	180.00
*CCOCCOc1cccc(NC(=O)c2cccc(C(=O)Nc3cccc(O*)c3)c2)c1 (repeat unit)	128.50
*c1ccc(Oc2ccc(Oc3ccc(N4C(=O)c5ccc(Oc6ccc(Sc7ccc(Oc8ccc9c(c8)C(=O)N(*)C9=O)cc7)cc6)cc5C4=O)cc3)cc2)cc1 (repeat unit)	201.00
*CC(*)(C)C(=O)OCCCCCCOc1ccc(C(=O)Oc2ccc(-c3cccc(OC(=O)c4ccc(OC(=O)c5ccc(OCCCCCCCCCCCC)cc5)cc4)c3)cc2)cc1 (repeat unit)	73.00
*/C=C/C1CC(*)C(C(=O)Oc2ccccc2)C1C(=O)Oc1ccccc1 (repeat unit)	96.50
*c1ccc(Oc2ccc(C3(c4ccc(Oc5ccc(-c6nnc(*)c7c(-c8ccccc8)c(-c8ccc9ccccc9c8)c(-c8ccc9ccccc9c8)c(-c8ccccc8)c67)cc5)cc4)c4ccccc4-c4ccccc43)cc2)cc1 (repeat unit)	334.00
*c1ccc(C(C)(C)c2ccc(N3C(=O)c4ccc(Oc5ccc6c(c5)C(=O)N(*)C6=O)cc4C3=O)cc2)cc1 (repeat unit)	265.00
*CC(C)COC(=O)c1ccc(C(=O)O*)cc1 (repeat unit)	55.00
*O[Si](*)(C)CCCCCCCCCCCOc1ccc(/C=C/c2ccc(OC)cc2)cc1 (repeat unit)	55.00
*CC(COCCOCCOC)O* (repeat unit)	-57.00

SMILES	glass transition temperature [°C]
*Oc1ccc(S(=O)(=O)c2ccc(Oc3ccc4c(=O)n5c6cc(-c7ccc8c(c7)nc7c9ccc(*)c%10cccc(c(=O)n87)c%109)ccc6nc5c5cccc3c45)cc2)cc1 (repeat unit)	415.00
*C#C/C(COS(=O)(=O)c1ccc(C)cc1)=C(/*)COS(=O)(=O)c1ccc(C)cc1 (repeat unit)	-73.00
*c1cccc(S(=O)(=O)NCCCCNS(*)(=O)=O)c1 (repeat unit)	82.00
*O[Si](*)(C)CCCOc1ccc(C(=O)Oc2ccc(OC(=O)CCCCC(=O)OC3CC(C)CCC3C(C)C)cc2)cc1 (repeat unit)	45.30
*c1ccc(C2(c3ccc(-c4cc(-c5ccccc5)c5cc(Oc6ccc7nc(*)cc(-c8ccccc8)c7c6)ccc5n4)cc3)c3ccccc3C(=O)c3ccccc32)cc1 (repeat unit)	340.00
*c1cc(C(c2ccc(OCCN(C)c3ccc(/C=C/C4=CC(=C(/C#N)C(=O)OCc5ccc(Oc6c(F)c(F)c(F)c(F)c6F)cc5)/CC(C)(C)C4)cc3)c(N3C(=O)c4ccc(Oc5ccc6c(c5)C(=O)N(*)C6=O)cc4C3=O)c2)(C(F)(F)F)C(F)(F)F)ccc1OCCN(c1ccccc1)c1ccc(/C=C/C2=CC(=C(/C#N)C(=O)OCc3ccc(Oc4c(F)c(F)c(F)c(F)c4F)cc3)/CC(C)(C)C2)cc1 (repeat unit)	162.00
*Oc1ccc(CCNC(=O)c2cccc(C(*)=O)c2)cc1 (repeat unit)	152.00
*/C(=C(/c1ccc(*)cc1)c1ccc(Oc2ccccc2)cc1)c1ccc(Oc2ccccc2)cc1 (repeat unit)	163.00
*c1ccc2c(c1)C(=O)N(c1ccc(OC(CCC)COc3ccc(N4C(=O)c5ccc(C(*)(C(F)(F)F)C(F)(F)F)cc5C4=O)cc3)cc1)C2=O (repeat unit)	204.00
*OS(=O)(=O)c1cc(S(=O)(=O)Oc2ccc(C3(c4ccc(*)cc4)CCCC3)cc2)ccc1C (repeat unit)	134.00
*c1ccc(S(=O)(=O)c2ccc(-n3nc(-c4ccccc4)c4ccc(Oc5ccc6c(-c7ccccc7)nn(*)c(=O)c6c5)cc4c3=O)cc2)cc1 (repeat unit)	294.50
*/C(=C/c1cc(OC)c(/C=C(\c2ccccc2)c2ccc3cc(*)ccc3c2)cc1OC)c1ccccc1 (repeat unit)	198.00
*C(=O)c1ccc2c(c1)C(=O)N(CC1(C)CC(N3C(=O)c4ccc(*)cc4C3=O)CC(C)(C)C1)C2=O (repeat unit)	275.00
*c1ccc(N2C(=O)c3c(c(-c4ccccc4)c(-c4ccc(-c5c(-c6ccccc6)c6c(c(-c7ccccc7)c5-c5ccccc5)C(=O)N(*)C6=O)cc4)c(-c4ccccc4)c3-c3ccccc3)C2=O)cc1 (repeat unit)	466.00
*CCCCCC(=O)Oc1ccc(-c2ccc(OC(=O)c3ccc4c(c3)C(=O)N(*)C4=O)cc2)cc1 (repeat unit)	118.00
*c1ccc2c(c1)C(=O)N(c1ccc(Oc3ccc(C(=O)c4cccc(C(=O)c5ccc(Oc6ccc(N7C(=O)c8ccc(C(*)(C(F)(F)F)C(F)(F)F)cc8C7=O)cc6C(F)(F)F)cc5)n4)cc3)c(C(F)(F)F)c1)C2=O (repeat unit)	206.40
*CCS* (repeat unit) [Poly(ethylene sulfide)]	-25.83 ± 34
*c1ccc(Oc2ccc(N3C(=O)c4ccc(Oc5cccc6c(Oc7ccc8c(c7)C(=O)N(*)C8=O)cccc56)cc4C3=O)cc2)cc1 (repeat unit)	240.00
*C(=O)c1ccc2c(c1)C(=O)N(c1cccc(P(=O)(c3ccc(Oc4ccc(C56CC7CC(CC(C7)C5)C6)cc4)cc3)c3cccc(N4C(=O)c5ccc(*)cc5C4=O)c3)c1)C2=O (repeat unit)	305.00
*Nc1ccc(-c2ccc(Nc3ccc4c(c3)c3cc(*)ccc3n4CC(CC)CCCC)cc2)cc1 (repeat unit)	231.00

Reference: the PolyMetriX glass transition set
